Source: patent publication US10975093B2, “Fused 1,4-diazepines as BET protein degraders” (THE REGENTS OF THE UNIVERSITY OF MICHIGAN, priority 2016, dated 2021)

What was measured:
Type in all cases: cell-based
MOLM-13 = experiment: Cell growth inhibition, CellTiter-Glo Luminescent Cell Viability Assay, MOLM-13; settings: Homo sapiens, MOLM-13 cells, 4 days incubation
Method in brief: (§1)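 Cells were seeded at 2,000/well with serially diluted compound and grown 4 days at 37° C, 5% CO2. Viability was read by CellTiter-Glo luminescence after 10-20 min at room temperature, and IC50 was fitted from the dose-response.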

MDA-MB-231 = experiment: Cell growth inhibition, CellTiter-Glo Luminescent Cell Viability Assay, MDA-MB-231; settings: Homo sapiens, MDA-MB-231 cells, 4 days incubation
Method in brief: as §1

MDA-MB-468 = experiment: Cell growth inhibition, CellTiter-Glo Luminescent Cell Viability Assay, MDA-MB-468; settings: Homo sapiens, 96 h, MDA-MB-468 cells, 4 days incubation
Protocol: (§2) Cell growth inhibitory activity of representative Compounds of the Disclosure was determined in various cell lines using CellTiter-Glo® Luminescent Cell Viability Assay. Cells were seeded in 384-well white opaque cell culture plates at a density of 2,000 cells/well with serially diluted compounds and incubated at 37° C. in an atmosphere of 95% air and 5% CO2 for 4 days. Cell viability was determined using the CellTiter-Glo® Luminescent Cell Viability Assay Kit (Promega, Madison, Wis.) according to the manufacture's instruction. Briefly, a volume of CellTiter-Glo® Reagent equal to the volume of cell culture medium was added to each well, and then the plates were incubated at room temperature for 10-20 minutes. The luminescent signal was measured using a Tecan Infinite M1000 multimode microplate reader (Tecan, Morrisville, N.C.). The half maximal inhibitory concentration (IC50) was calculated using the GraphPad Prism 5 software (GraphPad Software, La Jolla, Calif.).

RS4; 11 = experiment: Cell growth inhibition, CellTiter-Glo Luminescent Cell Viability Assay, RS4;11; settings: Homo sapiens, 96 h, RS4;11 cells, 4 days incubation
Protocol: as §2

Compound | IC50 (MOLM-13; MOLM-13, 96 h) [nM] | IC50 (MDA-MB-231; MDA-MB-231, 96 h) [nM] | IC50 (MDA-MB-468) [nM] | IC50 (RS4; 11) [nM] | IC50 (MOLM-13; 96 h) [nM] | IC50 (MDA-MB-231; 96 h) [nM]
Cc1c(C#Cc2cncn2CCCC#Cc2cccc3c2CN(C2CCC(=O)NC2=O)C3=O)sc2c1C(c1ccc(Cl)cc1)=NCc1nnc(C)n1-2 (stereo not shown) [Cpd. No. 28, 3-(4-(5-(5-((4-(4-chlorophenyl)-3,9-dimethyl-6H-thieno[3,2-f][1,2,4]triazolo[4,3-a][1,4]diazepin-2-yl)ethynyl)-1H-imidazol-1-yl)pent-1-yn-1-yl)-1-oxoisoindolin-2-yl)piperidine-2,6-dione] | 66.1 | > 100 | > 100 | > 10 |  | 
Cc1c(C#Cc2cn(CCCCCc3cccc4c3CN(C3CCC(=O)NC3=O)C4=O)nn2)sc2c1C(c1ccc(Cl)cc1)=N[C@@H](C)c1nnc(C)n1-2 (stereo partly drawn) [Cpd. No. 4, 3-(4-(5-(4-(((S)-4-(4-chlorophenyl)-3,6,9-trimethyl-6H-thieno[3,2 f][1,2,4]triazolo[4,3-a][1,4]diazepin-2-yl)ethynyl)-1H-1,2,3-triazol-1-yl)pentyl)-1-oxoisoindolin-2-yl)piperidine-2,6-dione] |  |  | < 0.015 | < 0.0015 | 0.3 | < 0.015
Cc1c(C#Cc2ccc(CCCCNc3cccc4c3CN(C3CCC(=O)NC3=O)C4=O)cn2)sc2c1C(c1ccc(Cl)cc1)=NCc1nnc(C)n1-2 (stereo not shown) [Cpd. No. 7, 3-(4-((4-(6-((4-(4-chlorophenyl)-3,9-dimethyl-6H-thieno[3,2-f][1,2,4]triazolo[4,3-a][1,4]diazepin-2-yl)ethynyl)pyridin-3-yl)butyl)amino)-1-oxoisoindolin-2-yl)piperidine-2,6-dione] |  |  | 10.7 | 0.81 | 4.2 | 6.08
Cc1c(C#Cc2cnn(CCCCNc3cccc4c3C(=O)N(C3CCC(=O)NC3=O)C4=O)c2)sc2c1C(c1ccc(Cl)cc1)=N[C@@H](C)c1nnc(C)n1-2 (stereo partly drawn) [Cpd. No. 22, 4-((4-(4-(((S)-4-(4-chlorophenyl)-3,6,9-trimethyl-6H-thieno[3,2-f][1,2,4]triazolo[4,3-a][1,4]diazepin-2-yl)ethynyl)-1H-pyrazol-1-yl)butyl)amino)-2-(2,6-dioxopiperidin-3-yl)isoindoline-1,3-dione] | 0.9 | 0.9 | 1.8 | 0.2 |  | 
Cc1c(C#Cc2cn(CCCCNc3cccc4c3CN(C3CCC(=O)NC3=O)C4=O)nn2)sc2c1C(c1ccc(Cl)cc1)=NCc1nnc(C)n1-2 (stereo not shown) [Cpd. No. 5, 3-(4-((4-(4-((4-(4-chlorophenyl)-3,9-dimethyl-6H-thieno[3,2-f][1,2,4]triazolo[4,3-a][1,4]diazepin-2-yl)ethynyl)-1H-1,2,3-triazol-1-yl)butyl)amino)-1-oxoisoindolin-2-yl)piperidine-2,6-dione] |  |  | 26.1 | 0.29 | 3.6 | 22.8
Cc1c(C#Cc2cn(CCCC#Cc3cccc4c3C(=O)N(C3CCC(=O)NC3=O)C4=O)cn2)sc2c1C(c1ccc(Cl)cc1)=NCc1nnc(C)n1-2 (stereo not shown) [Cpd. No. 27, 4-(5-(4-((4-(4-chlorophenyl)-3,9-dimethyl-6H-thieno[3,2-f][1,2,4]triazolo[4,3-a][1,4]diazepin-2-yl)ethynyl)-1H-imidazol-1-yl)pent-1-yn-1-yl)-2-(2,6-dioxopiperidin-3-yl)isoindoline-1,3-dione] | 32 | > 100 | > 100 | > 10 |  | 
Cc1c(C#Cc2cnn(CCCCCc3cccc4c3CN(C3CCC(=O)NC3=O)C4=O)c2)sc2c1C(c1ccc(Cl)cc1)=NCc1nnc(C)n1-2 (stereo not shown) [Cpd. No. 23, 3-(4-(5-(4-((4-(4-chlorophenyl)-3,9-dimethyl-6H-thieno[3,2-f][1,2,4]triazolo[4,3-a][1,4]diazepin-2-yl)ethynyl)-1H-pyrazol-1-yl)pentyl)-1-oxoisoindolin-2-yl)piperidine-2,6-dione] | 1.9 | 1.7 | 4.2 | 0.3 |  | 
